# In US6737383B1, “Herbicidal oxadiazolidines” (priority 1999, dated 2004):
# Key:
# green foxtail [1] = assay: Test E green foxtail; format: in vivo, Setaria viridis; details: Preemergence
# blackgrass = assay: Test E blackgrass; format: in vivo, Alopecurus myosuroides; details: Preemergence
# Green foxtail [2] = assay: Test D green foxtail; format: in vivo; details: Preemergence, 0 to 100 scale
# Procedure, shortened: (§1)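 Greenhouse pots, seeds in sandy loam; compounds formulated in non-phytotoxic solvent with surfactant; preemergence treatments went on the soil surface within one day of planting. Injury rated visually 14 to 21 days after application on a 0 (none) to 100 (complete control) scale.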
# common ragweed = assay: Test D common ragweed; format: in vivo, Ambrosia elatior; details: Preemergence, 0 to 100 scale
# Procedure, shortened: as §1
# winter barley = assay: Test E winter barley; format: in vivo, Hordeum vulgare; details: Preemergence
# pigweed = assay: Test B pre/postemergence pigweed; format: in vivo, Amaranthus retroflexus
# Procedure, shortened: (§2)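 Test chemicals in a non-phytotoxic solvent mixture with surfactant were sprayed preemergence onto planted seeds and postemergence onto plants 2 to 18 cm tall (1- to 4-leaf stage). After twelve to sixteen days in a greenhouse, injury was visually rated against untreated controls from 0 (no effect) to 10 (complete control).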
# itchgrass = assay: Test D itchgrass; format: in vivo, Rottboellia exaltata; details: Preemergence, 0 to 100 scale
# Procedure, shortened: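 Scoring used a 0–100 visual injury scale, with 0 meaning no effect and 100 complete control, assessed 14–21 days after application alongside untreated pots. Preemergence treatments went onto sandy loam surfaces of separately potted seeds within a day of sowing.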
# winter wheat [3] = assay: Test E winter wheat; format: in vivo, Triticum aestivum; details: Preemergence
# Green foxtail [4] = assay: Test D green foxtail; format: in vivo
# Procedure, shortened: as §1
# giant foxtail = assay: Test B pre/postemergence giant foxtail; format: in vivo, Setaria faberii
# Procedure, shortened: as §2
# wild oat = assay: Test E wild oat; format: in vivo, Avena fatua; details: Preemergence
# winter wheat [5] = assay: Test E winter wheat; format: in vivo, Triticum aestivum; details: Postemergence
# Procedure, shortened: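 Visual evaluation versus untreated controls after about 21 to 28 days in the greenhouse. Compound was in a surfactant-containing non-phytotoxic solvent; postemergence plants were treated at the 1- to 4-leaf stage, grown in a 60:40 sandy loam and potting mix blend.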
# Italian ryegrass = assay: Test E Italian ryegrass; format: in vivo, Lolium multiflorum; details: Preemergence
# morningglory = assay: Test B pre/postemergence morningglory; format: in vivo, Ipomoea hederacea
# Procedure, shortened: as §2
# [6] = Rate 62 g/ha, 0 to 100 scale, 0 no effect, 100 complete control
# [7] = Rate 125 g/ha, 0 to 100 scale (0 no effect, 100 complete control)
# [8] = Rate 16 g/ha, 0 no injury, 100 complete control
# [9] = Rate 32 g/ha, 0 no injury, 100 complete control
# [10] = Rate 64 g/ha, 0 no injury, 100 complete control
# [11] = Rate 125 g/ha, 0 no injury, 100 complete control
# [12] = Postemergence, Rate 125 g/ha, scale of 0 to 10 where 0 is no effect and 10 is complete control
# [13] = Preemergence, Rate 62 g/ha, scale 0 to 10 (0 no effect, 10 complete control)
# [14] = Preemergence, Rate 125 g/ha, scale 0 to 10 (0 no effect, 10 complete control)
# [15] = Preemergence, Rate 250 g/ha, scale of 0 to 10 where 0 is no effect and 10 is complete control
# [16] = Preemergence, Rate 500 g/ha, scale 0 to 10 (0 no effect, 10 complete control)
# [17] = Rate 62 g/ha, Postemergence, scale of 0 to 10 where 0 is no effect and 10 is complete control
# [18] = Rate 250 g/ha, Postemergence, scale 0 to 10, 0 is no effect, 10 is complete control
# [19] = Rate 500 g/ha, Postemergence, scale 0 to 10, 0 no effect, 10 complete control
# [20] = Rate 64 g/ha, Preemergence; 0 to 100 scale, 0 no injury, 100 complete control
# [21] = Rate 125 g/ha, Preemergence; 0 to 100 scale, 0 no injury, 100 complete control
# [22] = Rate 250 g/ha; Preemergence; 0 to 100 scale
# [23] = Postemergence, Rate 250 g/ha, scale 0 to 10, 0 no effect, 10 complete control
# [24] = Rate 250 g/ha, 0 to 100 scale (0 no effect, 100 complete control)
smiles,measurement,setting,value
CCCn1c(=O)on(C(=O)N(c2ccc(Cl)cc2)C(C)C)c1=O [Compound 119],"Plant response rating, Green foxtail",green foxtail [1]; [6],10
same,"Plant response rating, Green foxtail",green foxtail [1]; [7],50
same,"Plant response rating, Green foxtail","green foxtail [1]; Rate 250 g/ha, 0 to 100 scale",60
same,"Plant response rating, Blackgrass",blackgrass; [6],20
same,"Plant response rating, Blackgrass",blackgrass; [7],10
same,"Plant response rating, Blackgrass","blackgrass; Rate 250 g/ha, 0 to 100 scale",50
same,"Plant response rating, Green foxtail",Green foxtail [2]; Rate 250 g/ha,100
same,"Plant response rating, C. ragweed",common ragweed; [8],0
same,"Plant response rating, C. ragweed",common ragweed; [9],0
same,"Plant response rating, C. ragweed",common ragweed; [10],0
same,"Plant response rating, C. ragweed",common ragweed; [11],0
same,"Plant response rating, C. ragweed",common ragweed; Rate 250 g/ha,0
same,"Plant response rating, Barley (winter)",winter barley; [6],5
same,"Plant response rating, Barley (winter)",winter barley; [7],10
same,"Plant response rating, Barley (winter)","winter barley; Rate 250 g/ha, 0 to 100 scale",10
same,Redroot pigweed plant response rating,pigweed; [12],0
same,Redroot pigweed plant response rating,pigweed; [13],10
same,"Plant response rating, Redroot pigweed",pigweed; [14],10
same,"Plant response rating, Redroot pigweed",pigweed; [15],10
same,Redroot pigweed plant response rating,pigweed; [16],10
same,Redroot pigweed plant response rating,pigweed; [17],0
same,"Plant response rating, Redroot pigweed",pigweed; [18],2
same,Redroot pigweed plant response rating,pigweed; [19],6
same,"Plant response rating, Itchgrass",itchgrass; [8],0
same,"Plant response rating, Itchgrass",itchgrass; [9],10
same,"Plant response rating, Itchgrass",itchgrass; [10],50
same,"Plant response rating, Itchgrass",itchgrass; [11],60
same,"Plant response rating, Itchgrass",itchgrass; Rate 250 g/ha,75
same,"Plant response rating, Wheat (winter)",winter wheat [3]; [6],0
same,"Plant response rating, Wheat (winter)",winter wheat [3]; [7],20
same,"Plant response rating, Wheat (winter)","winter wheat [3]; Rate 250 g/ha, 0 to 100 scale",30
same,"Plant response rating, Green foxtail","Green foxtail [4]; Preemergence; Rate 16 g/ha; 0 to 100 scale, 0 no injury, 100 complete control",10
same,"Plant response rating, Green foxtail","Green foxtail [4]; Preemergence; Rate 32 g/ha; 0 to 100 scale, 0 no injury, 100 complete control",75
same,"Plant response rating, Green foxtail","Green foxtail [4]; Rate 16 g/ha; Preemergence; 0 to 100 scale, 0 no injury, 100 complete control",10
same,"Plant response rating, Green foxtail","Green foxtail [4]; Rate 32 g/ha; Preemergence; 0 to 100 scale, 0 no injury, 100 complete control",100
same,Green foxtail plant response rating,Green foxtail [4]; [20],90
same,"Plant response rating, Green foxtail",Green foxtail [4]; [20],90
same,Green foxtail plant response rating,Green foxtail [4]; [21],100
same,"Plant response rating, Green foxtail",Green foxtail [4]; [21],100
same,"Plant response rating, Green foxtail",Green foxtail [4]; [22],100
same,Giant foxtail plant response rating,giant foxtail; [12],8
same,Giant foxtail plant response rating,giant foxtail; [23],8
same,Giant foxtail plant response rating,giant foxtail; [13],9
same,"Plant response rating, Giant foxtail",giant foxtail; [14],10
same,"Plant response rating, Giant foxtail",giant foxtail; [15],10
same,Giant foxtail plant response rating,giant foxtail; [16],10
same,Giant foxtail plant response rating,giant foxtail; [17],8
same,Giant foxtail plant response rating,giant foxtail; [19],8
same,"Plant response rating, Wild oat",wild oat; [6],20
same,"Plant response rating, Wild oat",wild oat; [7],10
same,"Plant response rating, Wheat (winter)","winter wheat [5]; Rate 62 g/ha, 0 to 100 scale",10
same,"Plant response rating, Wheat (winter)","winter wheat [5]; Rate 125 g/ha, 0 to 100 scale",10
same,"Plant response rating, Wheat (winter)",winter wheat [5]; [24],20
same,"Plant response rating, I. Ryegrass",Italian ryegrass; [6],10
same,"Plant response rating, I. Ryegrass",Italian ryegrass; [7],35
same,"Plant response rating, I. Ryegrass","Italian ryegrass; Rate 250 g/ha, 0 to 100 scale",60
same,Morningglory plant response rating,morningglory; [12],7
same,Morningglory plant response rating,morningglory; [23],7
same,Morningglory plant response rating,morningglory; [13],0
same,"Plant response rating, Morningglory",morningglory; [14],2
same,"Plant response rating, Morningglory",morningglory; [15],2
same,Morningglory plant response rating,morningglory; [16],5
same,Morningglory plant response rating,morningglory; [17],3
same,Morningglory plant response rating,morningglory; [19],8
CC(C)N(C(=O)n1oc(=O)n(C2CCCCC2)c1=O)c1ccc(F)cc1 [Compound 110],"Plant response rating, Green foxtail",green foxtail [1]; [6],30
same,"Plant response rating, Green foxtail",green foxtail [1]; [7],60
same,"Plant response rating, Green foxtail","green foxtail [1]; Rate 250 g/ha, 0 to 100 scale",85
same,"Plant response rating, Blackgrass",blackgrass; [6],20
same,"Plant response rating, Blackgrass",blackgrass; [7],50
same,"Plant response rating, Blackgrass","blackgrass; Rate 250 g/ha, 0 to 100 scale",60
same,"Plant response rating, Green foxtail",Green foxtail [2]; Rate 250 g/ha,100
same,"Plant response rating, Green foxtail",Green foxtail [2]; Rate 500 g/ha,100
same,"Plant response rating, C. ragweed",common ragweed; Rate 250 g/ha,0
same,"Plant response rating, C. ragweed",common ragweed; Rate 500 g/ha,0
same,"Plant response rating, Barley (winter)",winter barley; [6],0
same,"Plant response rating, Barley (winter)",winter barley; [7],0
same,"Plant response rating, Barley (winter)","winter barley; Rate 250 g/ha, 0 to 100 scale",5
same,Redroot pigweed plant response rating,pigweed; [12],4
same,Redroot pigweed plant response rating,pigweed; [13],3
same,"Plant response rating, Redroot pigweed",pigweed; [14],6
same,"Plant response rating, Redroot pigweed",pigweed; [15],7
same,Redroot pigweed plant response rating,pigweed; [16],8
same,Redroot pigweed plant response rating,pigweed; [17],3
same,"Plant response rating, Redroot pigweed",pigweed; [18],5
same,Redroot pigweed plant response rating,pigweed; [19],6
same,"Plant response rating, Itchgrass",itchgrass; Rate 250 g/ha,40
same,"Plant response rating, Itchgrass",itchgrass; Rate 500 g/ha,40
same,"Plant response rating, Wheat (winter)",winter wheat [3]; [6],0
same,"Plant response rating, Wheat (winter)",winter wheat [3]; [7],0
same,"Plant response rating, Wheat (winter)","winter wheat [3]; Rate 250 g/ha, 0 to 100 scale",0
same,"Plant response rating, Green foxtail",Green foxtail [4]; [22],100
same,"Plant response rating, Green foxtail","Green foxtail [4]; Rate 500 g/ha, Preemergence; 0 to 100 scale",100
same,Giant foxtail plant response rating,giant foxtail; [12],2
same,Giant foxtail plant response rating,giant foxtail; [23],5
same,Giant foxtail plant response rating,giant foxtail; [13],10
same,"Plant response rating, Giant foxtail",giant foxtail; [14],10
same,"Plant response rating, Giant foxtail",giant foxtail; [15],10
same,Giant foxtail plant response rating,giant foxtail; [16],10
same,Giant foxtail plant response rating,giant foxtail; [17],0
same,Giant foxtail plant response rating,giant foxtail; [19],8
same,"Plant response rating, Wild oat",wild oat; [6],0
same,"Plant response rating, Wild oat",wild oat; [7],0
same,"Plant response rating, Wheat (winter)","winter wheat [5]; Rate 62 g/ha, 0 to 100 scale",0
same,"Plant response rating, Wheat (winter)","winter wheat [5]; Rate 125 g/ha, 0 to 100 scale",0
same,"Plant response rating, Wheat (winter)",winter wheat [5]; [24],0
same,"Plant response rating, I. Ryegrass",Italian ryegrass; [6],0
same,"Plant response rating, I. Ryegrass",Italian ryegrass; [7],0
same,"Plant response rating, I. Ryegrass","Italian ryegrass; Rate 250 g/ha, 0 to 100 scale",20
same,Morningglory plant response rating,morningglory; [12],5
same,Morningglory plant response rating,morningglory; [23],5
same,Morningglory plant response rating,morningglory; [13],0
same,"Plant response rating, Morningglory",morningglory; [14],0
same,"Plant response rating, Morningglory",morningglory; [15],0
same,Morningglory plant response rating,morningglory; [16],0
same,Morningglory plant response rating,morningglory; [17],4
same,Morningglory plant response rating,morningglory; [19],5
